Assay: xn = mol fraction of the nth substance listed

Oc1ccccc1Cl + COCCO
viscosity [mPa·s], 101 kPa
Conditions | x1 = 0.0797 | x1 = 0.163 | x1 = 0.2503 | x1 = 0.3418 | x1 = 0.4379 | x1 = 0.5388 | x1 = 0.6451 | x1 = 0.757 | x1 = 0.8752
303.15 K | 1.925 | 2.342 | 2.78 | 3.204 | 3.56 | 3.811 | 3.884 | 3.735 | 3.376
308.15 K | 1.81 | 2.126 | 2.456 | 2.776 | 3.04 | 3.212 | 3.268 | 3.166 | 2.898
313.15 K | 1.479 | 1.762 | 2.055 | 2.335 | 2.586 | 2.765 | 2.842 | 2.785 | 2.593
318.15 K | 1.34 | 1.572 | 1.805 | 2.03 | 2.227 | 2.37 | 2.445 | 2.419 | 2.282

CCCN + COCCOC
298.15 K, 101 kPa
Conditions | viscosity [mPa·s]
x1 = 0.0189 | 0.415
x2 = 0.0057 | 0.356
x2 = 0.0115 | 0.357
x2 = 0.032 | 0.358
x2 = 0.0568 | 0.36
x2 = 0.0815 | 0.362
x2 = 0.1075 | 0.364
x2 = 0.1552 | 0.368
x2 = 0.1871 | 0.369
x2 = 0.2467 | 0.372
x2 = 0.2882 | 0.373
x2 = 0.3386 | 0.374
x2 = 0.3526 | 0.374
x2 = 0.3761 | 0.374
x2 = 0.4134 | 0.375
x2 = 0.4707 | 0.378
x2 = 0.5131 | 0.38
x2 = 0.5662 | 0.381
x2 = 0.6099 | 0.383
x2 = 0.6466 | 0.386
x2 = 0.7017 | 0.39
x2 = 0.74 | 0.392
x2 = 0.8022 | 0.397
x2 = 0.833 | 0.399
x2 = 0.8785 | 0.403
x2 = 0.9167 | 0.408
x2 = 0.9436 | 0.411

CCCN + COCCOCCO
298.15 K, 101 kPa
Conditions | viscosity [mPa·s]
x2 = 0.0255 | 0.399
x2 = 0.0563 | 0.444
x2 = 0.0879 | 0.493
x2 = 0.1249 | 0.562
x2 = 0.1605 | 0.634
x2 = 0.2036 | 0.735
x2 = 0.2453 | 0.842
x2 = 0.2996 | 1.01
x2 = 0.3405 | 1.159
x2 = 0.3854 | 1.334
x2 = 0.4144 | 1.455
x2 = 0.4488 | 1.601
x2 = 0.4769 | 1.726
x2 = 0.5252 | 1.953
x2 = 0.5736 | 2.163
x2 = 0.6235 | 2.386
x2 = 0.6581 | 2.523
x2 = 0.7072 | 2.718
x2 = 0.7563 | 2.892
x2 = 0.7974 | 3.02
x2 = 0.8476 | 3.165
x2 = 0.8779 | 3.225
x2 = 0.9088 | 3.297
x2 = 0.9387 | 3.351
x2 = 0.9526 | 3.375

CCCN + COCCOCCOC
298.15 K, 101 kPa
Conditions | viscosity [mPa·s]
x1 = 0.0113 | 0.985
x2 = 0.0044 | 0.359
x2 = 0.0179 | 0.368
x2 = 0.0461 | 0.385
x2 = 0.0659 | 0.4
x2 = 0.0913 | 0.417
x2 = 0.1293 | 0.443
x2 = 0.1685 | 0.472
x2 = 0.1892 | 0.487
x2 = 0.2354 | 0.518
x2 = 0.2682 | 0.541
x2 = 0.2727 | 0.544
x2 = 0.315 | 0.575
x2 = 0.3201 | 0.579
x2 = 0.3647 | 0.613
x2 = 0.3683 | 0.615
x2 = 0.4079 | 0.644
x2 = 0.4628 | 0.679
x2 = 0.5243 | 0.721
x2 = 0.5823 | 0.757
x2 = 0.6408 | 0.796
x2 = 0.7358 | 0.84
x2 = 0.79 | 0.873
x2 = 0.8565 | 0.908
x2 = 0.897 | 0.935
x2 = 0.9375 | 0.955

CCCN + COCCOCCOCCOC
298.15 K, 101 kPa
Conditions | viscosity [mPa·s]
x2 = 0.0076 | 0.366
x2 = 0.0166 | 0.375
x2 = 0.0296 | 0.393
x2 = 0.0659 | 0.44
x2 = 0.0954 | 0.48
x2 = 0.1298 | 0.526
x2 = 0.1596 | 0.567
x2 = 0.1909 | 0.611
x2 = 0.2265 | 0.659
x2 = 0.2351 | 0.673
x2 = 0.2622 | 0.711
x2 = 0.2681 | 0.721
x2 = 0.3073 | 0.782
x2 = 0.3623 | 0.864
x2 = 0.4044 | 0.935
x2 = 0.4583 | 1.022
x2 = 0.5139 | 1.115
x2 = 0.5761 | 1.225
x2 = 0.6483 | 1.365
x2 = 0.6867 | 1.435
x2 = 0.745 | 1.549
x2 = 0.8308 | 1.72
x2 = 0.8787 | 1.805
x2 = 0.9203 | 1.862
x2 = 0.9618 | 1.917

CC(C)C(C)O (configuration not stated) + COc1ccccc1
viscosity [mPa·s], 101.33 kPa
Conditions | x2 = 0.1006 | x2 = 0.2007 | x2 = 0.3004 | x2 = 0.4 | x2 = 0.5008 | x2 = 0.6009 | x2 = 0.6997 | x2 = 0.8003 | x2 = 0.8998
303.15 K | 2.405 | 1.858 | 1.476 | 1.223 | 1.067 | 0.981 | 0.937 | 0.919 | 0.913
313.15 K | 1.731 | 1.397 | 1.157 | 0.991 | 0.889 | 0.832 | 0.808 | 0.799 | 0.794
323.15 K | 1.273 | 1.066 | 0.925 | 0.83 | 0.771 | 0.736 | 0.718 | 0.707 | 0.699

Clc1ccccc1Cl + COc1ccccc1
viscosity [mPa·s], 101 kPa
Conditions | x2 = 0.0977 | x2 = 0.1979 | x2 = 0.3012 | x2 = 0.403 | x2 = 0.4955 | x2 = 0.5995 | x2 = 0.6967 | x2 = 0.7951 | x2 = 0.8931
298.15 K | 1.201 | 1.172 | 1.142 | 1.118 | 1.097 | 1.081 | 1.056 | 1.037 | 1.022
303.15 K | 1.121 | 1.094 | 1.067 | 1.042 | 1.019 | 1 | 0.9808 | 0.9631 | 0.9486
308.15 K | 1.046 | 1.02 | 0.9938 | 0.9716 | 0.949 | 0.9288 | 0.9098 | 0.8944 | 0.881
313.15 K | 0.9762 | 0.9514 | 0.9268 | 0.9045 | 0.8869 | 0.8664 | 0.8479 | 0.832 | 0.8178

From the CheMixHub viscosity set
